Reference: US11053204B2, “Pyrimidinyloxy benzene derivatives as herbicides” (FMC Corporation, priority 2015, dated 2021)

Assays:
Type in all cases: in vivo
rice (Oryza sativa) = assay: Test B flooded paddy test, plant response rating; conditions: 250 g ai/ha; Flood; scale of 0 to 100 where 0 is no effect and 100 is complete control; 13 to 15 days
Outline: (§1)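 Pots were flooded to 3 cm above the soil surface at treatment, compound applied directly to the paddy water, and that depth held throughout. Plants were kept in a greenhouse for 13 to 15 days, then visually rated against untreated controls.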

[1] = tested on: barnyardgrass (Echinochloa crus-galli); assay: Test B flooded paddy test, plant response rating; conditions: 250 g ai/ha; Flood; scale of 0 to 100 where 0 is no effect and 100 is complete control; 13 to 15 days
Outline: as §1

[2] = tested on: sedge, umbrella (small-flower umbrella sedge, Cyperus difformis); assay: Test B flooded paddy test, plant response rating; conditions: 250 g ai/ha; Flood; scale of 0 to 100 where 0 is no effect and 100 is complete control; 13 to 15 days
Outline: as §1

[3] = tested on: ducksalad (Heteranthera limosa); assay: Test B flooded paddy test, plant response rating; conditions: 250 g ai/ha; Flood; scale of 0 to 100 where 0 is no effect and 100 is complete control; 13 to 15 days
Outline: as §1

kochia (Kochia scoparia) [4] = assay: Test A postemergence, visual injury rating; conditions: 0 is no effect, 100 is complete control; for Kochia plant response rating: 0 to 100 scale, approximately 10 days
Outline: (§2)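 Injury scores run from 0, no effect, to 100, complete control, judged by eye against untreated plants roughly 10 days after treatment. Chemicals carried a surfactant in a non-phytotoxic solvent and went onto loam–sand soil preemergence or onto one- to two-leaf seedlings postemergence.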

[5] = tested on: wheat (Triticum aestivum); assay: Test A postemergence, visual injury rating; conditions: 0 is no effect, 100 is complete control; for Wheat plant response rating: 0 to 100 scale, approximately 10 days
Outline: as §2

[6] = tested on: galium (catchweed bedstraw, Galium aparine); assay: Test A postemergence, visual injury rating; conditions: 0 is no effect, 100 is complete control; for Galium plant response rating: 0 to 100 scale, approximately 10 days
Outline: as §2

[7] = tested on: pigweed (Amaranthus retroflexus); assay: Test A postemergence, visual injury rating; conditions: 0 is no effect, 100 is complete control; for Pigweed plant response rating: 0 to 100 scale, approximately 10 days
Outline: as §2

[8] = tested on: Italian ryegrass (Lolium multiflorum); assay: Test A postemergence, visual injury rating; conditions: 0 is no effect, 100 is complete control; for Ryegrass, Italian plant response rating: 0 to 100 scale, approximately 10 days
Outline: as §2

[9] = tested on: ragweed (common ragweed, Ambrosia elatior); assay: Test A postemergence, visual injury rating; conditions: 0 is no effect, 100 is complete control; for Ragweed plant response rating: 0 to 100 scale, approximately 10 days
Outline: as §2

[10] = tested on: barnyardgrass (Echinochloa crus-galli); assay: Test A postemergence, visual injury rating; conditions: 0 is no effect, 100 is complete control; for Barnyardgrass plant response rating: 0 to 100 scale, approximately 10 days
Outline: as §2

[11] = tested on: blackgrass (Alopecurus myosuroides); assay: Test A postemergence, visual injury rating; conditions: 0 is no effect, 100 is complete control; for Blackgrass plant response rating: 0 to 100 scale, approximately 10 days
Outline: as §2

corn (Zea mays) = assay: Test A postemergence, visual injury rating; conditions: 0 is no effect, 100 is complete control; for Corn plant response rating: 0 to 100 scale, approximately 10 days
Outline: as §2

[12] = tested on: giant foxtail (Setaria faberii); assay: Test A postemergence, visual injury rating; conditions: 0 is no effect, 100 is complete control; for Foxtail, Giant plant response rating: 0 to 100 scale, approximately 10 days
Outline: as §2

kochia (Kochia scoparia) [13] = assay: Test A preemergence, visual injury rating
Outline: as §2

[14] = tested on: pigweed (Amaranthus retroflexus); assay: Test A preemergence, visual injury rating
Outline: as §2

[15] = tested on: Italian ryegrass (Lolium multiflorum); assay: Test A preemergence, visual injury rating
Outline: as §2

[16] = tested on: ragweed (common ragweed, Ambrosia elatior); assay: Test A preemergence, visual injury rating
Outline: as §2

[17] = tested on: barnyardgrass (Echinochloa crus-galli); assay: Test A preemergence, visual injury rating
Outline: as §2

[18] = tested on: giant foxtail (Setaria faberii); assay: Test A preemergence, visual injury rating
Outline: as §2

[19] = 31 g ai/ha, 0 to 100 scale, 0 no effect, 100 complete control
[20] = 125 g ai/ha, 0 to 100 scale (0 no effect, 100 complete control)
[21] = 500 g ai/ha, 0 to 100 scale (0 no effect, 100 complete control)

## N#Cc1cccc(Oc2ncc(Cl)cn2)c1C(=O)CCC(F)(F)C(F)(F)F [Compound 111]
Rice (Oryza sativa)
  Plant response rating, Rice: 0
[1]
  Plant response rating, Barnyardgrass: 0
[2]
  Plant response rating, Sedge, Umbrella: 0
[3]
  Plant response rating, Ducksalad: 0
Kochia (Kochia scoparia) [4]; 31 g ai/ha
  Kochia plant response rating: 0
Kochia (Kochia scoparia) [4]; 125 g ai/ha
  Kochia plant response rating: 0
[5]; 31 g ai/ha
  Wheat plant response rating: 0
[5]; 125 g ai/ha
  Wheat plant response rating: 0
[6]; 31 g ai/ha
  Galium plant response rating: 0
[6]; 125 g ai/ha
  Galium plant response rating: 0
[7]; 31 g ai/ha
  Pigweed plant response rating: 0
[7]; 125 g ai/ha
  Pigweed plant response rating: 0
[8]; 31 g ai/ha
  Ryegrass, Italian plant response rating: 0
[8]; 125 g ai/ha
  Ryegrass, Italian plant response rating: 0
[9]; 31 g ai/ha
  Ragweed plant response rating: 0
[9]; 125 g ai/ha
  Ragweed plant response rating: 0
[10]; 31 g ai/ha
  Barnyardgrass plant response rating: 0
[10]; 125 g ai/ha
  Barnyardgrass plant response rating: 0
[11]; 31 g ai/ha
  Blackgrass plant response rating: 0
[11]; 125 g ai/ha
  Blackgrass plant response rating: 0
Corn (Zea mays); 31 g ai/ha
  Corn plant response rating: 0
Corn (Zea mays); 125 g ai/ha
  Corn plant response rating: 0
[12]; 31 g ai/ha
  Foxtail, Giant plant response rating: 0
[12]; 125 g ai/ha
  Foxtail, Giant plant response rating: 0
Kochia (Kochia scoparia) [13]; [19]
  Plant response rating, Kochia: 0
Kochia (Kochia scoparia) [13]; [20]
  Plant response rating, Kochia: 0
[14]; [19]
  Plant response rating, Pigweed: 0
[14]; [20]
  Plant response rating, Pigweed: 0
[15]; [19]
  Plant response rating, Ryegrass, Italian: 0
[15]; [20]
  Plant response rating, Ryegrass, Italian: 0
[16]; [19]
  Plant response rating, Ragweed: 0
[16]; [20]
  Plant response rating, Ragweed: 0
[17]; [19]
  Plant response rating, Barnyardgrass: 0
[17]; [20]
  Plant response rating, Barnyardgrass: 0
[18]; [19]
  Plant response rating, Foxtail, Giant: 0
[18]; [20]
  Plant response rating, Foxtail, Giant: 0

## N#Cc1ccc(Oc2ncc(Cl)cn2)c(C(=O)OCCC(F)(F)F)c1 [Compound 64]
Rice (Oryza sativa)
  Plant response rating, Rice: 0
[1]
  Plant response rating, Barnyardgrass: 0
[2]
  Plant response rating, Sedge, Umbrella: 0
[3]
  Plant response rating, Ducksalad: 0
Kochia (Kochia scoparia) [4]; 125 g ai/ha
  Kochia plant response rating (0 to 100 scale): 0
Kochia (Kochia scoparia) [4]; 500 g ai/ha
  Kochia plant response rating (0 to 100 scale): 0
[5]; 125 g ai/ha
  Wheat plant response rating (0 to 100 scale): 0
[5]; 500 g ai/ha
  Wheat plant response rating (0 to 100 scale): 0
[6]; 125 g ai/ha
  Galium plant response rating (0 to 100 scale): 0
[6]; 500 g ai/ha
  Galium plant response rating (0 to 100 scale): 0
[7]; 125 g ai/ha
  Pigweed plant response rating (0 to 100 scale): 0
[7]; 500 g ai/ha
  Pigweed plant response rating (0 to 100 scale): 0
[8]; 125 g ai/ha
  Ryegrass, Italian plant response rating (0 to 100 scale): 0
[8]; 500 g ai/ha
  Ryegrass, Italian plant response rating (0 to 100 scale): 0
[9]; 125 g ai/ha
  Ragweed plant response rating (0 to 100 scale): 0
[9]; 500 g ai/ha
  Ragweed plant response rating (0 to 100 scale): 0
[10]; 125 g ai/ha
  Barnyardgrass plant response rating (0 to 100 scale): 0
[10]; 500 g ai/ha
  Barnyardgrass plant response rating (0 to 100 scale): 0
[11]; 125 g ai/ha
  Blackgrass plant response rating (0 to 100 scale): 0
[11]; 500 g ai/ha
  Blackgrass plant response rating (0 to 100 scale): 0
Corn (Zea mays); 125 g ai/ha
  Corn plant response rating (0 to 100 scale): 0
Corn (Zea mays); 500 g ai/ha
  Corn plant response rating (0 to 100 scale): 0
[12]; 125 g ai/ha
  Foxtail, Giant plant response rating (0 to 100 scale): 0
[12]; 500 g ai/ha
  Foxtail, Giant plant response rating (0 to 100 scale): 0
Kochia (Kochia scoparia) [13]; [20]
  Kochia plant response rating: 0
Kochia (Kochia scoparia) [13]; [21]
  Kochia plant response rating: 0
[14]; [20]
  Pigweed plant response rating: 0
[14]; [21]
  Pigweed plant response rating: 0
[15]; [20]
  Ryegrass, Italian plant response rating: 0
[15]; [21]
  Ryegrass, Italian plant response rating: 0
[16]; [20]
  Ragweed plant response rating: 0
[16]; [21]
  Ragweed plant response rating: 0
[17]; [20]
  Barnyardgrass plant response rating: 0
[17]; [21]
  Barnyardgrass plant response rating: 0
[18]; [20]
  Foxtail, Giant plant response rating: 0
[18]; [21]
  Foxtail, Giant plant response rating: 0

## O=C(OCC(Cl)(Cl)Cl)c1c(Br)cccc1Oc1ncc(Cl)cn1 [Compound 45]
Rice (Oryza sativa)
  Plant response rating, Rice: 0
[1]
  Plant response rating, Barnyardgrass: 0
[2]
  Plant response rating, Sedge, Umbrella: 0
[3]
  Plant response rating, Ducksalad: 0
Kochia (Kochia scoparia) [4]; 31 g ai/ha
  Kochia plant response rating: 20
Kochia (Kochia scoparia) [4]; 125 g ai/ha
  Kochia plant response rating (0 to 100 scale): 50
[5]; 31 g ai/ha
  Wheat plant response rating: 0
[5]; 125 g ai/ha
  Wheat plant response rating (0 to 100 scale): 0
[6]; 31 g ai/ha
  Galium plant response rating: 50
[6]; 125 g ai/ha
  Galium plant response rating (0 to 100 scale): 100
[7]; 31 g ai/ha
  Pigweed plant response rating: 80
[7]; 125 g ai/ha
  Pigweed plant response rating (0 to 100 scale): 100
[8]; 31 g ai/ha
  Ryegrass, Italian plant response rating: 0
[8]; 125 g ai/ha
  Ryegrass, Italian plant response rating (0 to 100 scale): 0
[9]; 31 g ai/ha
  Ragweed plant response rating: 10
[9]; 125 g ai/ha
  Ragweed plant response rating (0 to 100 scale): 10
[10]; 31 g ai/ha
  Barnyardgrass plant response rating: 20
[10]; 125 g ai/ha
  Barnyardgrass plant response rating (0 to 100 scale): 20
[11]; 31 g ai/ha
  Blackgrass plant response rating: 0
[11]; 125 g ai/ha
  Blackgrass plant response rating (0 to 100 scale): 0
Corn (Zea mays); 31 g ai/ha
  Corn plant response rating: 0
Corn (Zea mays); 125 g ai/ha
  Corn plant response rating (0 to 100 scale): 20
[12]; 31 g ai/ha
  Foxtail, Giant plant response rating: 20
[12]; 125 g ai/ha
  Foxtail, Giant plant response rating (0 to 100 scale): 20
Kochia (Kochia scoparia) [13]; [19]
  Plant response rating, Kochia: 0
Kochia (Kochia scoparia) [13]; [20]
  Kochia plant response rating: 0
[14]; [19]
  Plant response rating, Pigweed: 0
[14]; [20]
  Pigweed plant response rating: 70
[15]; [19]
  Plant response rating, Ryegrass, Italian: 0
[15]; [20]
  Ryegrass, Italian plant response rating: 0
[16]; [19]
  Plant response rating, Ragweed: 0
[16]; [20]
  Ragweed plant response rating: 0
[17]; [19]
  Plant response rating, Barnyardgrass: 0
[17]; [20]
  Barnyardgrass plant response rating: 0
[18]; [19]
  Plant response rating, Foxtail, Giant: 0
[18]; [20]
  Foxtail, Giant plant response rating: 10
